Results published in the NIST ThermoML archive (doi:10.1021/je500980a).

Details: Liquid

CCCCCCCCCC(=O)OC [methyl decanoate]
viscosity [mPa·s]
Details | 293.15 K | 313.15 K | 333.15 K | 353.15 K
101.3 kPa, Falling or rolling sphere viscometry | 2.15 | 1.46 | 1.07 | 0.825
101.3 kPa, Quartz crystal resonator | 2.13 | 1.5 | 1.08 | 0.837
10000 kPa, Quartz crystal resonator | 2.36 | 1.66 | 1.19 | 0.927
20000 kPa, Falling or rolling sphere viscometry | 2.66 | 1.83 | 1.32 | 1.01
20000 kPa, Quartz crystal resonator | 2.62 | 1.84 | 1.3 | 1.02
30000 kPa, Quartz crystal resonator | 2.92 | 2 | 1.43 | 1.12
40000 kPa, Falling or rolling sphere viscometry | 3.24 | 2.21 | 1.58 | 1.21
40000 kPa, Quartz crystal resonator | 3.21 | 2.2 | 1.55 | 1.22
50000 kPa, Quartz crystal resonator | 3.53 | 2.39 | 1.68 | 1.31
60000 kPa, Falling or rolling sphere viscometry | 3.91 | 2.65 | 1.86 | 1.42
60000 kPa, Quartz crystal resonator | 3.87 | 2.59 | 1.81 | 1.42
70000 kPa, Quartz crystal resonator | 4.22 | 2.82 | 1.97 | 1.53
80000 kPa, Falling or rolling sphere viscometry | 4.67 | 3.12 | 2.17 | 1.64
80000 kPa, Quartz crystal resonator | 4.61 | 3.06 | 2.11 | 1.63
90000 kPa, Quartz crystal resonator | 5.02 | 3.29 | 2.26 | 1.75
100000 kPa, Falling or rolling sphere viscometry | 5.53 | 3.63 | 2.5 | 1.88
100000 kPa, Quartz crystal resonator | 5.47 | 3.56 | 2.43 | 1.87
120000 kPa, Falling or rolling sphere viscometry | 6.52 | 4.21 | 2.86 | 2.13
120000 kPa, Quartz crystal resonator | 6.47 | 4.1 | 2.76 | 2.13
140000 kPa, Falling or rolling sphere viscometry | 7.66 | 4.85 | 3.26 | 2.41
140000 kPa, Quartz crystal resonator | 7.82 | 4.75 | 3.19 | 2.41
160000 kPa, Falling or rolling sphere viscometry | 8.96 | 5.56 | 3.7 | 2.71
160000 kPa, Quartz crystal resonator | 9.17 | 5.43 | 3.62 | 2.72
180000 kPa, Falling or rolling sphere viscometry | – | 6.35 | 4.18 | 3.03
180000 kPa, Quartz crystal resonator | – | 6.29 | 4.07 | 3.05
200000 kPa, Falling or rolling sphere viscometry | – | 7.24 | 4.7 | 3.38
200000 kPa, Quartz crystal resonator | – | 7.13 | 4.54 | 3.41
